“And” between values parts separate entries of the source, which are not always exact repeats. Identical values can stand only once. “Also recorded” adds a separate entry of the source. Counter-ions that a name gives are not always drawn.
Columns and labels:
[1] = system: conscious guinea-pigs; assay: Aerosolized ATP-induced cough in conscious free moving guinea-pigs; type: in vivo, guinea-pig
Procedure: This study was performed in 6 guinea-pigs. The housing room was constantly ventilated, and the temperature kept at ˜23° C. After quarantine, the animals were individually placed in a whole-body, unrestrained, plethysmograph chamber (model PLY3215, Buxco Electronics Inc., Troy, N.Y.) for ˜40 min once a day for two continuous days before the cough test. All GPs were weighed before the cough study.
ATP was purchased from Sigma-Aldrich (Cat #A2383-10G). Solutions of ATP used for aerosol challenge were freshly made just prior to use by dissolving the powder in 0.9% saline (NaCl) solution. Solutions of DT-0111 used for aerosol administration were freshly made by dissolving the powder in 0.9% saline (NaCl) solution.
A plethysmograph chamber was continuously flushed with normoxic (21% O2 and 79% N2) room air at 2 L/min. The same amount of air was drawn through the chamber base outlets using a Buxco bias flow regulator to keep the chamber bias flow balanced. ATP or DT solution was aerosolized by using a vibrating mesh nebulizer (Ireland Ltd., Galway Ireland, AG-AL1100). The output rate of delivered aerosol was around 0.5 ml/min with droplet size (volume median diameter) at 2.5-4.0 μm (manufacture's indications). The aerosol was mixed with airflow and directly delivered into the plethysmograph chamber. The latter was placed in a standard chemical fume hood (size: 3×6 ft) installed in a standard laboratory.
A guinea-pig was placed in the chamber again after adaptation. Following stabilization, #1 guinea-pig was exposed to aerosolized ATP at 6 mg/ml, 24 mg/ml, and then 48 mg/ml for 5 min with an interval of 30 min. The remaining animals (#2-#6 guinea-pigs) were exposed to aerosolized ATP at 48 mg/ml for 5 min. Approximately 140 min later, the same dose of ATP was repeated immediately after DT-0111 aerosol inhalation (12 mg/ml for 5 min). […] The cough sound and behavioral activities were continuously monitored and recorded before (for 3 min), during 5 min aerosol delivery, and 20 min after cessation of the delivery.
Setup of the cough recording system. The top of the plethysmograph chamber was connected with a plastic tube that was attached by the nebulizer. Normoxic air driven by the nebulizer controller was flowed into the chamber and sucked out by the bias flow regulator with the in and out flow volume balanced (2.0 L/min). To detect cough, a microphone system was mounted in the roof of the chamber to record sound; a video camera was placed outside of the chamber to monitor animal body posture; and a Buxco pneumotachograph (differential pressure transducer) attached to the chamber to record airflow. All signals generated by video camera, microphone, and pressure transducer were amplified and recorded continuously by PowerLab/8 sp (model ML 785; ADInstruments Inc., Colorado Springs, Colo.) and a computer with the LabChart Pro 7 software.
Cough count. A typical cough response, as reported before (Girard et al., Eur Respir J, 1995; Blasko et al., American Journal of Advanced Drug Delivery. 5:131-138, 2017; Corboz et al., Journal of Pharmacology and Experimental Therapeutics. 363: 348-357, 2017), was defined by the simultaneous appearance of: 1) a transient and great change in the airflow (a rapid inspiration followed by rapid expiration); 2) a typical cough sound with the peak power density at 1-2 kHz in frequency spectrum (sneeze at 3.5-6.5 kHz); and 3) animal body (head) posture and movement.

[2] = system: P2X3-P2X2/3; settings: experimental animals; cited from earlier work
[3] = molecular target: T1, P2X2/3 receptor (Rattus norvegicus, UniProt P49653+P49654); assay: Nodose ganglion neuron assay of P2X2/3 receptor antagonism (whole-cell voltage-clamp); type: cell-based; settings: rat nodose ganglionic cell; for antagonism of ATP-induced inward current: ATP 10 μM, whole-cell voltage clamp
T1 construct: Single neurons were enzymatically isolated from rats' nodose ganglia; from tissue; host or cells: dissociated nodose ganglion neurons of 17-day-old male Sprague-Dawley rats
T1 sequence (P49653 1-472): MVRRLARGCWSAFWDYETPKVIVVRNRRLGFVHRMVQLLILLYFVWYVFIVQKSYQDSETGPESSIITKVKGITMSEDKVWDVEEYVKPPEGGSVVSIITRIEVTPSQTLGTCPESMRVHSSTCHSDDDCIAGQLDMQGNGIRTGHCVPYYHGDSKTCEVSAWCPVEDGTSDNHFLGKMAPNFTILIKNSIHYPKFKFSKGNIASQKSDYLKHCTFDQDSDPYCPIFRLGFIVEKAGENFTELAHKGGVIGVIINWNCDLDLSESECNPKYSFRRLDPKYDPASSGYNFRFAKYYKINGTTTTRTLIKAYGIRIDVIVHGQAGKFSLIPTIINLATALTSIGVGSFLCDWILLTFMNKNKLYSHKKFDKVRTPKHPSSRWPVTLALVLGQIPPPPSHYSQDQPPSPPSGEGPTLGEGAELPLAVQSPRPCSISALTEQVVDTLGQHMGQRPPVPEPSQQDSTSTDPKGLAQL
T1 sequence (P49654 1-397): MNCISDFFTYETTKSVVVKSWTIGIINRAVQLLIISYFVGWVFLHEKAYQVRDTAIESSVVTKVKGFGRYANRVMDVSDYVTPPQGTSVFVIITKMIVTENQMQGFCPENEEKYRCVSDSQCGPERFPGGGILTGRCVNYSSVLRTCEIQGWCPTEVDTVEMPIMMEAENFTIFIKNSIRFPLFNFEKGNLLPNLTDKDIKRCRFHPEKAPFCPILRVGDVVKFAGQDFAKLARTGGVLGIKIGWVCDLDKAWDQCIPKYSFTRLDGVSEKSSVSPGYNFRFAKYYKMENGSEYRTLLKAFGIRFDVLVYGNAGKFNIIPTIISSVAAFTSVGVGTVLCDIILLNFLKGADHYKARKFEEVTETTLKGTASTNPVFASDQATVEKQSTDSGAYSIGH
Procedure: Single neurons were enzymatically isolated from rats' nodose ganglia as described by Zhong et al., Br J Pharmacol 1998; 125, 771-781. Briefly, 17- day old male Sprague-Dawley rats were killed by CO2 inhalation. Ganglia were rapidly dissected and placed in Leibovitz's L-15 medium (Life Technologies, Paisley, UK). Ganglia were desheathed, cut and incubated in 4 ml Ca^2+/Mg^2+-free Hanks' balanced salt solution with 10 mm Hepes buffer (pH 7.0) (HBSS) (Life Technologies) containing 1.5 mg ml-1 collagenase (Class-II; Worthington Biochemical Corporation, Reading, UK) and 6 mg ml-1 bovine serum albumin (Sigma) at 37° C. for 40 min. Ganglia were then incubated with 4 ml HBSS containing 1 mg ml-1 trypsin (Sigma) at 37° C. for 20 min. The solution was replaced with 3 ml of growth medium comprising L-15 medium supplemented with 10% bovine serum, 50 ng ml-1 nerve growth factor, 0.2% NaHCO3, 5.5 mg ml-1 glucose, 200 IU ml-1 penicillin and 200 μg ml-1 streptomycin. The ganglia were dissociated into single neurons by gentle trituration. The cells were then centrifuged at 160 g for 5 min, resuspended in 1 ml of growth medium, and plated onto 35 mm Petri dishes coated with 10 μg ml-1 laminin (Sigma). Cells were maintained at 37° C. in a humidified atmosphere containing 5% CO2 and used between 2 and 48 hours after plating.
Whole-cell voltage-clamp recordings were performed at room temperature using an Axopatch 200B amplifier (Axon Instruments, Union City, Calif., USA). Membrane potential was held at […]. The external solution contained (mM): 154 NaCl, 4.7 KCl, 1.2 MgCl2, 2.5 CaCl2), 10 Hepes, 5.6 glucose, and the pH was adjusted to 7.4 using NaOH. Recording electrodes (resistance […]) were filled with an internal solution which contained (mm): 56 citric acid, 3 MgCl2, 10 CsCl, 10 NaCl, […], 0.1 EGTA, 10 tetraethylammonium chloride, and the pH was adjusted to 7.2 using CsOH (total Cs+concentration 170 mm). […] Solution exchange measured by changes in open tip current was complete in 200 ms; however, complete exchange of solution around an intact cell was slower (<1 s). […]

[4] = system: P2X3 receptor; settings: guinea pig airway-specific primary nodose ganglion cell afferents; cited from earlier work
[5] = ATP (48 mg/ml) aerosol 5 min alone, per guinea-pig

SMILES: Nc1ncnc2c1ncn2[C@@H]1O[C@H](COP(=O)(O)OP(=O)(O)OP(=O)(O)O)[C@@H](O)[C@H]1O [ATP, adenosine 5′-triphosphate]
- cough evoked by aerosolized ATP ([1]; ATP 48 mg/ml, 5 min exposure, all animals): evoked significant coughs
- Bout Cough B1# (cough number in first bout) [1, 5]: 24 and 14 and 18 and 19 and 21
- Individual Cough [1, 5]: 3 and 0 (2×) and 1 (3×)
- Subtotal coughs ([1]; ATP (48 mg/ml) aerosol 5 min alone, per guinea-pig and Mean): 27 and 24 and 35 and 19 and 22

SMILES: O=C(O)c1cc(C(=O)O)c(C(=O)N(Cc2cccc(Oc3ccccc3)c2)[C@H]2CCCc3ccccc32)cc1C(=O)O [Compound A-317491]
- effect on cyclophosphamide (CYP)-induced cystitis [2]: inhibit cyclophosphamide (CYP)-induced cystitis

SMILES: COc1cc(OC)cc(C(=O)NC2C(O)[C@H](n3cnc4c(N)ncnc43)O[C@@H]2COP(=O)(O)OP(=O)(O)OP(=O)(O)O)c1 (stereo partly drawn) [Compound 11, 3″,5″-Dimethoxybenzoyl-3′-amino-3′-deoxyadenosine-5′-triphosphate Triethyl Ammonium Salt]
- antagonism of ATP-induced inward current ([3]; listed as 3″,5″-dimethoxybenzoyl-3′-amino-3′-deoxyadenosine-5′-triphosphate triethylammoni, Ammonium Salt): substantially abrogated
- antagonism of ATP-induced inward current ([3]; listed as compound 11, Ammonium Salt): substantially abrogated; also recorded: complete antagonism at the higher concentrations
- reversibility of antagonism on washout ([3]; after washing out the antagonist): reversible

SMILES: COc1cc(C(C)C)c(Oc2cnc(N)nc2N)cc1I [AF-353]
- effect on TRPV4 receptor activation effects (Aδ fiber stimulation and coughing) [4]: markedly attenuated

— US11440935B2, “3″,5″-dimethoxybenzoyl-3′-amino-3′-deoxy adenosine-5′-triphosphates and pharmaceutical uses thereof” (Danmir Therapeutics, LLC, priority 2018, dated 2022)
